# Numbers after ± are expanded uncertainties.
# Assay: xn = mol fraction of the nth substance listed
# Conditions: 100 kPa, Liquid; for speed of sound: Frequency=3 MHz, Sing-around technique in a fixed-path interferometer; for mass density: Vibrating tube method
compound,measurement,setting,value
CCCCn1cc[n+](C)c1.N#C[S-] [1-butyl-3-methylimidazolium thiocyanate] + CCC(=O)O,speed of sound,"293.15 K, x1 = 0.0698",1260.2 ± 1.5 m/s
same,speed of sound,"293.15 K, x1 = 0.1444",1361.3 ± 1.5 m/s
same,speed of sound,"293.15 K, x1 = 0.2223",1445.8 ± 1.5 m/s
same,speed of sound,"293.15 K, x1 = 0.306",1514.4 ± 1.5 m/s
same,speed of sound,"293.15 K, x1 = 0.3989",1571.4 ± 1.5 m/s
same,speed of sound,"293.15 K, x1 = 0.5022",1619.3 ± 1.5 m/s
same,speed of sound,"293.15 K, x1 = 0.6068",1662 ± 1.5 m/s
same,speed of sound,"293.15 K, x1 = 0.7166",1700.9 ± 1.6 m/s
same,speed of sound,"293.15 K, x1 = 0.8561",1742.8 ± 1.6 m/s
same,speed of sound,"293.15 K, x1 = 0.9209",1761.8 ± 1.6 m/s
same,speed of sound,"293.15 K, x1 = 1",1778.8 ± 1.7 m/s
same,mass density,"293.15 K, x1 = 0.0698",1015.42 ± 0.17 kg/m3
same,mass density,"293.15 K, x1 = 0.1444",1031.52 ± 0.16 kg/m3
same,mass density,"293.15 K, x1 = 0.2223",1042.18 ± 0.16 kg/m3
same,mass density,"293.15 K, x1 = 0.306",1049.78 ± 0.17 kg/m3
same,mass density,"293.15 K, x1 = 0.3989",1055.66 ± 0.18 kg/m3
same,mass density,"293.15 K, x1 = 0.5022",1060.19 ± 0.19 kg/m3
same,mass density,"293.15 K, x1 = 0.6068",1064.02 ± 0.21 kg/m3
same,mass density,"293.15 K, x1 = 0.7166",1067.2 ± 0.23 kg/m3
same,mass density,"293.15 K, x1 = 0.8561",1070.36 ± 0.25 kg/m3
same,mass density,"293.15 K, x1 = 0.9209",1071.7 ± 0.27 kg/m3
same,mass density,"293.15 K, x1 = 1",1072.74 ± 0.29 kg/m3
same,speed of sound,"298.15 K, x1 = 0.0698",1243 ± 1.5 m/s
same,speed of sound,"298.15 K, x1 = 0.1444",1345.7 ± 1.5 m/s
same,speed of sound,"298.15 K, x1 = 0.2223",1431.2 ± 1.5 m/s
same,speed of sound,"298.15 K, x1 = 0.306",1500.5 ± 1.5 m/s
same,speed of sound,"298.15 K, x1 = 0.3989",1558.1 ± 1.5 m/s
same,speed of sound,"298.15 K, x1 = 0.5022",1606.6 ± 1.5 m/s
same,speed of sound,"298.15 K, x1 = 0.6068",1649.6 ± 1.5 m/s
same,speed of sound,"298.15 K, x1 = 0.7166",1688.8 ± 1.6 m/s
same,speed of sound,"298.15 K, x1 = 0.8561",1730.9 ± 1.6 m/s
same,speed of sound,"298.15 K, x1 = 0.9209",1750 ± 1.6 m/s
same,speed of sound,"298.15 K, x1 = 1",1767.2 ± 1.7 m/s
same,mass density,"298.15 K, x1 = 0.0698",1010.77 ± 0.17 kg/m3
same,mass density,"298.15 K, x1 = 0.1444",1027.32 ± 0.16 kg/m3
same,mass density,"298.15 K, x1 = 0.2223",1038.27 ± 0.16 kg/m3
same,mass density,"298.15 K, x1 = 0.306",1046.09 ± 0.17 kg/m3
same,mass density,"298.15 K, x1 = 0.3989",1052.15 ± 0.18 kg/m3
same,mass density,"298.15 K, x1 = 0.5022",1057.09 ± 0.19 kg/m3
same,mass density,"298.15 K, x1 = 0.6068",1061.09 ± 0.21 kg/m3
same,mass density,"298.15 K, x1 = 0.7166",1064.46 ± 0.23 kg/m3
same,mass density,"298.15 K, x1 = 0.8561",1067.84 ± 0.25 kg/m3
same,mass density,"298.15 K, x1 = 0.9209",1069.3 ± 0.27 kg/m3
same,mass density,"298.15 K, x1 = 1",1070.34 ± 0.29 kg/m3
same,speed of sound,"303.15 K, x1 = 0.0698",1225.7 ± 1.5 m/s
same,speed of sound,"303.15 K, x1 = 0.1444",1329.8 ± 1.5 m/s
same,speed of sound,"303.15 K, x1 = 0.2223",1416.3 ± 1.5 m/s
same,speed of sound,"303.15 K, x1 = 0.306",1486.3 ± 1.5 m/s
same,speed of sound,"303.15 K, x1 = 0.3989",1544.6 ± 1.5 m/s
same,speed of sound,"303.15 K, x1 = 0.5022",1593.7 ± 1.5 m/s
same,speed of sound,"303.15 K, x1 = 0.6068",1637 ± 1.5 m/s
same,speed of sound,"303.15 K, x1 = 0.7166",1676.4 ± 1.6 m/s
same,speed of sound,"303.15 K, x1 = 0.8561",1718.9 ± 1.6 m/s
same,speed of sound,"303.15 K, x1 = 0.9209",1738.1 ± 1.6 m/s
same,speed of sound,"303.15 K, x1 = 1",1755.4 ± 1.7 m/s
same,mass density,"303.15 K, x1 = 0.0698",1006.13 ± 0.18 kg/m3
same,mass density,"303.15 K, x1 = 0.1444",1023.13 ± 0.16 kg/m3
same,mass density,"303.15 K, x1 = 0.2223",1034.37 ± 0.16 kg/m3
same,mass density,"303.15 K, x1 = 0.306",1042.4 ± 0.17 kg/m3
same,mass density,"303.15 K, x1 = 0.3989",1048.65 ± 0.18 kg/m3
same,mass density,"303.15 K, x1 = 0.5022",1053.43 ± 0.19 kg/m3
same,mass density,"303.15 K, x1 = 0.6068",1057.85 ± 0.21 kg/m3
same,mass density,"303.15 K, x1 = 0.7166",1061.32 ± 0.22 kg/m3
same,mass density,"303.15 K, x1 = 0.8561",1064.79 ± 0.25 kg/m3
same,mass density,"303.15 K, x1 = 0.9209",1066.3 ± 0.27 kg/m3
same,mass density,"303.15 K, x1 = 1",1067.37 ± 0.28 kg/m3
same,speed of sound,"308.15 K, x1 = 0.0698",1208.3 ± 1.5 m/s
same,speed of sound,"308.15 K, x1 = 0.1444",1313.9 ± 1.5 m/s
same,speed of sound,"308.15 K, x1 = 0.2223",1401.5 ± 1.5 m/s
same,speed of sound,"308.15 K, x1 = 0.306",1472.3 ± 1.5 m/s
same,speed of sound,"308.15 K, x1 = 0.3989",1531.1 ± 1.5 m/s
same,speed of sound,"308.15 K, x1 = 0.5022",1580.8 ± 1.5 m/s
same,speed of sound,"308.15 K, x1 = 0.6068",1624.6 ± 1.5 m/s
same,speed of sound,"308.15 K, x1 = 0.7166",1664.2 ± 1.6 m/s
same,speed of sound,"308.15 K, x1 = 0.8561",1707 ± 1.6 m/s
same,speed of sound,"308.15 K, x1 = 0.9209",1726.3 ± 1.6 m/s
same,speed of sound,"308.15 K, x1 = 1",1743.7 ± 1.7 m/s
same,mass density,"308.15 K, x1 = 0.0698",1001.49 ± 0.18 kg/m3
same,mass density,"308.15 K, x1 = 0.1444",1018.95 ± 0.16 kg/m3
same,mass density,"308.15 K, x1 = 0.2223",1030.48 ± 0.16 kg/m3
same,mass density,"308.15 K, x1 = 0.306",1038.73 ± 0.17 kg/m3
same,mass density,"308.15 K, x1 = 0.3989",1045.17 ± 0.18 kg/m3
same,mass density,"308.15 K, x1 = 0.5022",1050.09 ± 0.19 kg/m3
same,mass density,"308.15 K, x1 = 0.6068",1054.64 ± 0.21 kg/m3
same,mass density,"308.15 K, x1 = 0.7166",1058.2 ± 0.22 kg/m3
same,mass density,"308.15 K, x1 = 0.8561",1061.76 ± 0.25 kg/m3
same,mass density,"308.15 K, x1 = 0.9209",1063.3 ± 0.26 kg/m3
same,mass density,"308.15 K, x1 = 1",1064.42 ± 0.28 kg/m3
same,speed of sound,"313.15 K, x1 = 0.0698",1191 ± 1.5 m/s
same,speed of sound,"313.15 K, x1 = 0.1444",1298.1 ± 1.5 m/s
same,speed of sound,"313.15 K, x1 = 0.2223",1386.8 ± 1.5 m/s
same,speed of sound,"313.15 K, x1 = 0.306",1458.3 ± 1.5 m/s
same,speed of sound,"313.15 K, x1 = 0.3989",1517.8 ± 1.5 m/s
same,speed of sound,"313.15 K, x1 = 0.5022",1568.1 ± 1.5 m/s
same,speed of sound,"313.15 K, x1 = 0.6068",1612.2 ± 1.5 m/s
same,speed of sound,"313.15 K, x1 = 0.7166",1652.1 ± 1.6 m/s
same,speed of sound,"313.15 K, x1 = 0.8561",1695.1 ± 1.6 m/s
same,speed of sound,"313.15 K, x1 = 0.9209",1714.6 ± 1.6 m/s
same,speed of sound,"313.15 K, x1 = 1",1732.1 ± 1.7 m/s
same,mass density,"313.15 K, x1 = 0.0698",996.86 ± 0.18 kg/m3
same,mass density,"313.15 K, x1 = 0.1444",1014.78 ± 0.17 kg/m3
same,mass density,"313.15 K, x1 = 0.2223",1026.6 ± 0.16 kg/m3
same,mass density,"313.15 K, x1 = 0.306",1035.07 ± 0.17 kg/m3
same,mass density,"313.15 K, x1 = 0.3989",1041.69 ± 0.18 kg/m3
same,mass density,"313.15 K, x1 = 0.5022",1046.79 ± 0.19 kg/m3
same,mass density,"313.15 K, x1 = 0.6068",1051.44 ± 0.2 kg/m3
same,mass density,"313.15 K, x1 = 0.7166",1055.09 ± 0.22 kg/m3
same,mass density,"313.15 K, x1 = 0.8561",1058.74 ± 0.25 kg/m3
same,mass density,"313.15 K, x1 = 0.9209",1060.33 ± 0.26 kg/m3
same,mass density,"313.15 K, x1 = 1",1061.47 ± 0.28 kg/m3
CCC(=O)O [propanoic acid] + CCCCn1cc[n+](C)c1.N#C[S-],speed of sound,"293.15 K, x2 = 0",1164.7 ± 1.3 m/s
same,mass density,"293.15 K, x2 = 0",993.33 ± 0.13 kg/m3
same,speed of sound,"298.15 K, x2 = 0",1146 ± 1.3 m/s
same,mass density,"298.15 K, x2 = 0",987.94 ± 0.13 kg/m3
same,speed of sound,"303.15 K, x2 = 0",1127.1 ± 1.3 m/s
same,mass density,"303.15 K, x2 = 0",982.54 ± 0.13 kg/m3
same,speed of sound,"308.15 K, x2 = 0",1108.3 ± 1.3 m/s
same,mass density,"308.15 K, x2 = 0",977.14 ± 0.13 kg/m3
same,speed of sound,"313.15 K, x2 = 0",1089.6 ± 1.3 m/s
same,mass density,"313.15 K, x2 = 0",971.75 ± 0.14 kg/m3
